Each block holds one compound with its values, some of them ahead of it. The source made the active and inactive calls.
Experiments:
Hexokinase = molecular target: T1, Hexokinase (Trypanosoma brucei, UniProt Q38C41); assay: Confirmation assay for inhibitors of Trypanosoma brucei hexokinase 1-Analogue-first series. [Related pubchem assays (depositor defined):AID1430, AID1632, AID2516, AID2560, AID2579, AID2600, AID449725, AID492951]; assay type: functional
T1 sequence (Q38C41 whole entry): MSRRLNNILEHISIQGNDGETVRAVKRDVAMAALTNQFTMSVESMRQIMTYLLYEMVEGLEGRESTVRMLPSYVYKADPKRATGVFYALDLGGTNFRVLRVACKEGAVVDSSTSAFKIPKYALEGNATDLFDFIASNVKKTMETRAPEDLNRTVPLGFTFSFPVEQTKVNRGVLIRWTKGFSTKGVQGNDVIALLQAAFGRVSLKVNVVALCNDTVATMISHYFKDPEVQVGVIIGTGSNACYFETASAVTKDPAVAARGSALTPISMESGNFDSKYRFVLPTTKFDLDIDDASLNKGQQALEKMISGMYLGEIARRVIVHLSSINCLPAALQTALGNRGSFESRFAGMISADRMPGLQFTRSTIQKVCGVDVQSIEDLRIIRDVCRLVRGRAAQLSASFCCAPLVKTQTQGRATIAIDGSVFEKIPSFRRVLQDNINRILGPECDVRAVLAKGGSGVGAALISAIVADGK

H9c2 = assay: cells; assay type: functional, cell-based; conditions: Rattus norvegicus, H9c2, Myocardium;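 note: confirmatory concentration-response retest of ultra-high-throughput screening hits for modulation of myocardial damage; cell death induced by hydrogen peroxide oxidative stress; compound pretreatment for 60 min then peroxide exposure for 2 h; potency is for protecting the cells against peroxide damage rather than for killing them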
[1] = molecular target: T2, Ubiquitin-conjugating enzyme E2 N (Homo sapiens, UniProt P61088); assay type: functional;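 note: Dose-response confirmation in a TR-FRET assay detecting UBC13-driven polyubiquitin chain formation, inhibition measured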
T2 sequence (P61088 whole entry): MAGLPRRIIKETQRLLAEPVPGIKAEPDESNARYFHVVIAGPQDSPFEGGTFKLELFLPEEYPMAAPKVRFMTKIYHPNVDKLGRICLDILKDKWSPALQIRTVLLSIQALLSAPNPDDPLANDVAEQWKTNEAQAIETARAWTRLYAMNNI

Paired box protein Pax-8 = Paired box protein Pax-8 (Homo sapiens, UniProt Q06710); assay: inhibitors of PAX8-driven TPO luciferase reporter, dose response, RMG-I cells, cherry-pick (AID 687027); assay type: functional, cell-based;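 note: luciferase reporter driven by Pax8 target thyroperoxidase promoter measured by SteadyGlo luminescence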
[2] = NIH:OVCAR-3 ovarian cancer cell cytotoxicity, dose response, PAX8 inhibitor project, plate reader, dry powder samples (AID 743044); assay type: functional, cell-based
[3] = cytotoxicity in OVCAR8 ovarian cancer cells, dose response, PAX8 project, cell-based, plate reader, dry powder samples (AID 743197); assay type: functional; conditions: OVCAR-8
[4] = non-specific cell cytotoxicity, dose response, cytotoxicity control for PAX8 inhibitor project, plate reader, dry powder samples (AID 743021); assay type: functional, cell-based
[5] = system: Streptococcus sp. 'group A'; assay: growth inhibition of control SK(-) GAS strain, dose response, counter-screen for streptokinase expression inhibitor project, luminescence, kanamycin, BacTiterGlo, confirmation (AID 1900); assay type: functional, organism-based
[6] = inhibitors of intracellular T. cruzi replication, confirmation, NIH3T3 host cells, beta-gal luminescence (AID 2044); assay type: functional, cell-based;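 note: intracellular parasites grown in NIH/3T3 mouse fibroblasts as host cells; luminescent beta-galactosidase reporter signal from transgenic T. cruzi replicating inside host cells; inhibitors lower the luminescence signal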
[7] = cytotoxicity toward NIH3T3 fibroblasts, dose response, counter-screen, cell-based, ATP luminescence, mouse fibroblasts (AID 2010); assay type: functional;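 note: cells exposed to compound for about 90 hours before reading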
Streptococcus = assay: Group A Streptococcus viability loss, dose response, counter-screen for streptokinase expression inhibitor project, luminescence, BacTiterGlo (AID 1915); assay type: functional, organism-based;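 note: potency for reduction of bacterial viability or growth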
BJ = assay: cytotoxicity toward Ras-transformed BJeLR fibroblasts, dose response, cell-based, alamar blue fluorescence, cherrypicked samples (AID 2631); assay type: functional; conditions: Homo sapiens;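 note: confirmatory dose-response assay in RAS-dependent BJ fibroblasts engineered with TERT, LT and ST, with cytotoxicity read by fluorescence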

Paired box protein Pax-8, sequence (Q06710 whole entry): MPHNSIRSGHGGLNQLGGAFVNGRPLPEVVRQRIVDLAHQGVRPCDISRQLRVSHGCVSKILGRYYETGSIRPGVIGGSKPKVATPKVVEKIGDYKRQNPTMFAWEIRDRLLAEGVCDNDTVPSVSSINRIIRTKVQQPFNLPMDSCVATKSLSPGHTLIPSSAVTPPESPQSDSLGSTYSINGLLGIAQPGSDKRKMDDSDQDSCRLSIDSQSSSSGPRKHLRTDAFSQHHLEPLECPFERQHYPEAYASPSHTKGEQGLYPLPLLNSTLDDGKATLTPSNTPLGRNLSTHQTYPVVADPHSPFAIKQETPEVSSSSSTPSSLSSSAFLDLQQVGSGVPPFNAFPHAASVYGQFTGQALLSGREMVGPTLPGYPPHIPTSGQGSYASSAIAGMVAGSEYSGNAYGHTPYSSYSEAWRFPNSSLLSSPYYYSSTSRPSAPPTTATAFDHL

Structure (SMILES): O=c1c2ccc(Br)cc2sn1-c1ccccc1
IC50 (Hexokinase): 3.61 µM (active)

Structure (SMILES): COc1ccccc1C(=O)Nc1cc(Cl)ccc1C(=O)O
IC50 (Hexokinase): > 25 µM (inactive)

Structure (SMILES): O=C(Nc1cc(Cl)ccc1C(=O)O)c1ccncc1
IC50 (Hexokinase): > 25 µM (inactive)

Structure (SMILES): O=c1c2ccccc2on1-c1ccccc1
IC50 (Hexokinase): > 25 µM (inactive)

Structure (SMILES): COc1ccc(NC(=O)CCc2nc(O)c3ccccc3n2)cc1S(=O)(=O)N1CCCCC1
IC50 (H9c2): > 79 µM (inactive)

IC50 [1]: > 20 µM (inactive)
Structure (SMILES): COc1ccccc1NC(=O)COC(=O)C12CC3CC(CC(Br)(C3)C1)C2

Structure (SMILES): O=C(O)c1ccc2c(c1)S(=O)(=O)c1cc(N3CCN(c4cnccn4)CC3)ccc1C2=O
IC50 (H9c2): > 79 µM (inactive)

Structure (SMILES): C[C@H]1CCCCO[C@@H](CN(C)Cc2ccc3c(c2)OCO3)[C@@H](C)CN([C@@H](C)CO)C(=O)c2cc(NC(=O)Nc3ccc(F)cc3)ccc2O1
AC50 (Paired box protein Pax-8): 22 µM (active)
AC50 [2]: 31.2 µM (active)

Structure (SMILES): C[C@H](CO)N1C[C@H](C)[C@H](CN(C)Cc2ccc(C(F)(F)F)cc2)OCCCC[C@H](C)Oc2ccc(NC(=O)CCC(F)(F)F)cc2C1=O
AC50 (Paired box protein Pax-8): 5.89 µM (active)
AC50 [2]: 14.8 µM (active)
AC50 [3]: 63.8 µM (active)

Structure (SMILES): C[C@@H]1CN([C@@H](C)CO)S(=O)(=O)c2ccc(C#Cc3ccccc3F)cc2O[C@H]1CN(C)C(=O)Cc1ccccc1
AC50 (Paired box protein Pax-8): 5.88 µM (active)
AC50 [2]: 14.5 µM (active)
AC50 [4]: 25.5 µM (active)
AC50 [3]: 37.6 µM (active)

Structure (SMILES): CC1(C)N=C(N)N=C(N)N1c1ccc(Oc2ccc(Cl)cc2)c(Cl)c1
EC50 [5]: < 0.06 µM (active)
EC50 [6]: 0.177 µM (active)
EC50 [7]: 14.3 µM (active)
EC50 (Streptococcus): 0.085 µM (active)
EC50 (BJ): > 133 µM (inactive)
